Measured values from paper PMC9981512, “Thin film hydration versus modified spraying technique to fabricate intranasal spanlastic nanovesicles for rasagiline mesylate brain delivery: Characterization, statistical optimization, and in vivo pharmacokinetic evaluation” (Drug Delivery and Translational Research, 2022).
Structures can show the parent of a compound that is named as a salt. Where two headings read alike, the source gives them in different places.

Tests used:
[1] = In vitro release of RM, modified Franz diffusion cells with dialysis membrane, simulated nasal fluid; type: physicochemical; conditions: simulated nasal fluid pH 6.5, 37 °C, 50 rpm
Experimental: The in vitro release of RM from the optimized systems was investigated using modified Franz diffusion cells (Franz diffusion cell with dialysis membrane). In a few words, an exact volume of each optimized system was placed in the donor cell, and the dialysis process was performed against 50 mL of simulated nasal fluid (SNF; CaCl2.2H2O 0.32 mg/mL, NaCl 7.45 mg/mL, KCl 1.29 mg/mL, pH 6.5) maintained at 37 °C while stirring at 50 rpm. Three milliliter sample was withdrawn at each time interval (0.25, 0.5, 1, 1.5, 2, 3, 4, 6, 8, 10 and 12 h) and replaced with equal volumes of drug free SNF [39]. The amount of RM in each sample was measured spectrophotometrically at λmax 265 nm. The in vitro release profiles of the two optimized systems were compared to RM aqueous solution profile. Furthermore, the mean dissolution time (MDT) was calculated for both systems following Eq. (2):2 MDT=∑j=1ntj∗ΔMj/∑j=1nΔMj where j is the sample number, tj* is the midpoint time between t and tj-1 that can be calculated by (t + tj-1/2), n is the number of release samples, and ∆Mj is the additional amount released between t and tj-1. The higher the MDT value, the slower the drug release rate.

[2] = In vivo pharmacokinetics and brain targeting in rats, LC-MS/MS of brain homogenate and plasma; conditions: rat, RM in brain, intravenous, 0.05 mg/kg/day
Experimental: In order to evaluate the in vivo performance of the selected MST 2, an in vivo pharmacokinetics study was performed to measure the bioavailability and brain-targeting ability of the selected system after intranasal administration into rats. The study protocol was previously approved by the research ethics committee for the experimental and clinical studies at the Faculty of Pharmacy Cairo University with approval code (PI 2680). Briefly, forty-eight rats were divided into two groups (n = 24), and each group was divided into eight subgroups (n = 3). The average weight of the rats was 180 gm, and they were subjected to 12-h cycles of light/darkness. They were kept in cages with free access to food and water. The relative humidity was maintained in range 40–60%, and the temperature ranged from 20 to 25 °C during the experiment.
The first group was administered the optimized MST 2 equivalent to 0.05 mg/kg/day of RM [44] intranasally (IN) using a polyethylene tube which was attached to Hamilton syringe, whereas the second group was administered the same dose of an intravenous (IV) RM aqueous solution through the tail vein. Blood samples were collected from the rats at specified time intervals (0.25, 0.5, 1, 1.5, 2, 4, 8, and 12 h) via the puncture of lateral vesicular vein, centrifuged at 4000 rpm for 15 min, and separated to obtain the plasma that was then frozen at –80 °C until further investigations. Additionally, six rats (three of each subgroup) were anaesthetized and sacrificed to separate the brain tissues at 0.5, 1, 2, 4, and 8 h. The brain tissues were washed twice with normal saline and then weighed. An equal weight of normal saline was added to each brain sample, which was then homogenized (Heidolph DIAX 900, Heidolph Instruments, Schwabach, Germany) and kept frozen at – 80 °C until analysis. RM levels in plasma samples and brain homogenates were measured by a validated liquid chromatography-mass spectrometry (LC–MS/MS) method.
Calibration curves of RM in plasma and brain homogenate were constructed using clonazepam as internal standard (IS). Briefly, specific volumes of RM stock solution were mixed with one hundred microliter of clonazepam stock solution (100 ng/mL) and then spiked into 0.5 mL plasma or brain homogenate to obtain the following concentrations: 0.1, 1, 10, 20, 100, and 1000 ng/mL. For RM extraction from the samples, 0.5 mL of plasma samples or brain homogenates was mixed with 100 µL of clonazepam solution as IS and 4 mL of ethyl acetate to precipitate the proteins followed by vortexing (Stuart SA8, BiBBY Sterlin Ltd., UK) for 5 min and centrifugation for 10 min at 3000 rpm. The supernatant was transferred to a new tube to evaporate the organic solvent under vacuum using a vacuum concentrator (Eppendorf 5301, Hamburg, Germany). The obtained dry residue was reconstituted in 0.5 mL of the mobile phase (acetonitrile: 0.1% formic acid solution in water at a ratio (80:20 v/v)) after then, 9 µL of the obtained solution was injected into (LC–MS/MS) for analysis.
The analysis of RM in plasma samples and brain homogenates was done by LC–MS/MS (Shimadzu CBM20A, Japan) fitted with mass spectrometer AB Sciex 4000 (Sciex Instruments, USA) and auto-sampler (Shimadzu SIL20A, Japan). The mass spectrometer was equipped with turbo ion spray having a positive polarity with temperature set at 500 °C. The samples were analyzed by injecting aliquots of 9 µL, and the mobile phase flow rate was adjusted at 0.8 mL/min. The transition was from 172.036 to 117.000 m/z for RM and from 316.024 to 270 m/z in case of clonazepam. The analysis of the obtained results was done using Analyst software (version 1.6.3, Sciex Instruments, Framingham, USA).
Non-compartmental pharmacokinetic model was applied to analyze RM plasma and brain levels using Kinetica software (version 2000, Arlington, USA). […]

[3] = after oral administration; cited from earlier work

## C#CCN[C@@H]1CCc2ccccc21 [RM, Rasagiline mesylate]
[1]
  mean dissolution time (MDT): 0.333 ± 0.0991 h
  time of complete release of RM: 4 h
[2]
  AUC(0-inf): 28 ± 1.84 ng·h/mL
  Cmax: 15.8 ± 0.34 ng/mL
  Tmax: 0.5 h
[2]; read-out: K (hr^−1) elimination rate constant (converted)
  k el: 0.377 h⁻¹
[2]; read-out: MRT (hr) mean residence time
  MRT: 2.27 ± 0.71 h
[2]; read-out: T1/2 half (converted)
  half-life: 1.83 ± 0.24 h
[3]
  half-life: 1.5 to 3.5 h
  time to reach maximum concentration in plasma: ≤ 1 h
